{
  "source": "patent US12514938B2",
  "about": "“Fibroblast activation protein targeting peptides” (PERSPECTIVE THERAPEUTICS, INC., priority 2023, dated 2026)",
  "type_in_all_cases": "biochemical",
  "key": {"[1]": {"biological_target": "human dipeptidyl peptidase 4 (DPPIV) (Homo sapiens, UniProt P27487)", "sequence (P27487 whole entry)": "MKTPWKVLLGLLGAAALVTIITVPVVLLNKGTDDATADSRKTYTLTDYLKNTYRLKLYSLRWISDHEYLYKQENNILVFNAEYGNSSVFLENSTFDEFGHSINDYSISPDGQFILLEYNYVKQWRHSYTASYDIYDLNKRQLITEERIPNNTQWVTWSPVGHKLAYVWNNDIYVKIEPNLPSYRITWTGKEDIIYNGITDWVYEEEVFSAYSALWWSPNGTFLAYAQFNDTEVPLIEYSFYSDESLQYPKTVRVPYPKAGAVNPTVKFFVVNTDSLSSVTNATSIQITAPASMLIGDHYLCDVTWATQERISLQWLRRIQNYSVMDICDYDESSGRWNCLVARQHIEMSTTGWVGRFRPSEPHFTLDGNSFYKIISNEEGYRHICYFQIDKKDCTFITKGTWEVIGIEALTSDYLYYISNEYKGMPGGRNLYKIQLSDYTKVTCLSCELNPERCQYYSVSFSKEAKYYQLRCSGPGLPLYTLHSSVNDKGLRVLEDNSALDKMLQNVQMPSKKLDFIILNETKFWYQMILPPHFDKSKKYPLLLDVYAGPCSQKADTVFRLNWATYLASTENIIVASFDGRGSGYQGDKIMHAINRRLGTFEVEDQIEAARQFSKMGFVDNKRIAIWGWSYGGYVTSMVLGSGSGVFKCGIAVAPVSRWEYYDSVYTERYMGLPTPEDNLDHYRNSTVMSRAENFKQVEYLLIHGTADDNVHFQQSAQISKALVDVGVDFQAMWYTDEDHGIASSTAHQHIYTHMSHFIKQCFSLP", "test": "Enzyme inhibition assay, binding specificity of VMT-FAP-2-59 (Example 3, substrate GP-AMC)", "conditions": "50 μM GP-AMC", "protocol": "The enzyme inhibition assay was performed to determine inhibitor constant (i.e., Ki) values against human FAP, mouse FAP, human dipeptidyl peptidase 4 (DPPIV) and human prolyl endopeptidase (PREP). Z-GP-AMC was used as substrate for human FAP, mouse FAP and human PREP. GP-AMC was used as substrate for human DPPIV. To perform the assay, VMT-FAP-2-59 at varying concentrations (i.e. 10^−6 to 10^−12) were incubated with 5 ng hFAP, 5 ng mFAP, 2.5 ng DPPIV, or 5 ng PREP in a black 96-well plate for 10 minutes at RT on a shaker plate. The substrate was added to give a final concentration of 50 μM for Z-GP-AMC and GP-AMC. The total reaction volume per well was 100 μL The reaction was allowed to incubate at RT on a shaker plate for 1 hour protected from light, and then fluorescence was read with a BioTek Synergy LX plate reader at an ex/em (360/40 and 460/40). Experiments were performed in at least duplicate. Buffer only, buffer/enzymes, buffer/substrate and enzyme only were included as controls. Data was plotted in GraphPad Prism and non-linear regression used to calculate IC50 values. Binding kinetics (Kd) of VMT-FAP-2-59 against human FAP, human DPPIV and human PREP were also determined by grating-coupled interferometry (GCI). hFAP, hDPPIV and hPREP proteins were fixed on PCH (N=3) chips or PCP (N=2). […] On PCP chips, binding affinity of VMT-FAP-2-29 to hFAP was determined from 39 pM to 20 nM. […]"}, "[2]": {"biological_target": "T1, mouse FAP (Mus musculus, UniProt P97321)", "T1 sequence (P97321 1-761)": "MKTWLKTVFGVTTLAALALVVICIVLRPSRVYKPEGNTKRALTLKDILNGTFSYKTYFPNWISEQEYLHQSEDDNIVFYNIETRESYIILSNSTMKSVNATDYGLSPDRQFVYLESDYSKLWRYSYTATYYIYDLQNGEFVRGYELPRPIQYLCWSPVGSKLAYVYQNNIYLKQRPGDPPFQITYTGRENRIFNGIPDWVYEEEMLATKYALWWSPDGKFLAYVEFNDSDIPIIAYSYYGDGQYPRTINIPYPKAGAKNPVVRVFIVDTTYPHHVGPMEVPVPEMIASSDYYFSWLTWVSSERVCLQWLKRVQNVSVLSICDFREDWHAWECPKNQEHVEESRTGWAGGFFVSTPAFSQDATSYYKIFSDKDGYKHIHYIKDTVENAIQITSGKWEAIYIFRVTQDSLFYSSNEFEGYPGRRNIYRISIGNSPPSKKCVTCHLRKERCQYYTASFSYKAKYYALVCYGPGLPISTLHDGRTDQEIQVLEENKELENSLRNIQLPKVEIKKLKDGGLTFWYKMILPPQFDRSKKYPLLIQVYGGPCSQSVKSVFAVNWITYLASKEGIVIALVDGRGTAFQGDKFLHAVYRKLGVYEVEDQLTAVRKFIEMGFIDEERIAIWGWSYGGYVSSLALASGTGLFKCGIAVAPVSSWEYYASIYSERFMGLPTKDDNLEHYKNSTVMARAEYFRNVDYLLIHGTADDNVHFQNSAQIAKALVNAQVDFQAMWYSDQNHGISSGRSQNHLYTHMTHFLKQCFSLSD", "test": "Enzyme inhibition assay, binding specificity of VMT-FAP-2-59 (Example 3)", "conditions": "50 μM Z-GP-AMC", "protocol": "(§1) The enzyme inhibition assay was performed to determine inhibitor constant (i.e., Ki) values against human FAP, mouse FAP, human dipeptidyl peptidase 4 (DPPIV) and human prolyl endopeptidase (PREP). Z-GP-AMC was used as substrate for human FAP, mouse FAP and human PREP. GP-AMC was used as substrate for human DPPIV. To perform the assay, VMT-FAP-2-59 at varying concentrations (i.e. 10^−6 to 10^−12) were incubated with 5 ng hFAP, 5 ng mFAP, 2.5 ng DPPIV, or 5 ng PREP in a black 96-well plate for 10 minutes at RT on a shaker plate. The substrate was added to give a final concentration of 50 μM for Z-GP-AMC and GP-AMC. The total reaction volume per well was 100 μL The reaction was allowed to incubate at RT on a shaker plate for 1 hour protected from light, and then fluorescence was read with a BioTek Synergy LX plate reader at an ex/em (360/40 and 460/40). Experiments were performed in at least duplicate. Buffer only, buffer/enzymes, buffer/substrate and enzyme only were included as controls. Data was plotted in GraphPad Prism and non-linear regression used to calculate IC50 values. Binding kinetics (Kd) of VMT-FAP-2-59 against human FAP, human DPPIV and human PREP were also determined by grating-coupled interferometry (GCI). hFAP, hDPPIV and hPREP proteins were fixed on PCH (N=3) chips or PCP (N=2). […] On PCP chips, binding affinity of VMT-FAP-2-29 to hFAP was determined from 39 pM to 20 nM. Binding affinity to hDPPIV and hPREP was determined at concentration from 39 pM to 50 nM."}, "[3]": {"biological_target": "T2, human prolyl endopeptidase (PREP) (Homo sapiens, UniProt P48147)", "T2 sequence (P48147 1-710)": "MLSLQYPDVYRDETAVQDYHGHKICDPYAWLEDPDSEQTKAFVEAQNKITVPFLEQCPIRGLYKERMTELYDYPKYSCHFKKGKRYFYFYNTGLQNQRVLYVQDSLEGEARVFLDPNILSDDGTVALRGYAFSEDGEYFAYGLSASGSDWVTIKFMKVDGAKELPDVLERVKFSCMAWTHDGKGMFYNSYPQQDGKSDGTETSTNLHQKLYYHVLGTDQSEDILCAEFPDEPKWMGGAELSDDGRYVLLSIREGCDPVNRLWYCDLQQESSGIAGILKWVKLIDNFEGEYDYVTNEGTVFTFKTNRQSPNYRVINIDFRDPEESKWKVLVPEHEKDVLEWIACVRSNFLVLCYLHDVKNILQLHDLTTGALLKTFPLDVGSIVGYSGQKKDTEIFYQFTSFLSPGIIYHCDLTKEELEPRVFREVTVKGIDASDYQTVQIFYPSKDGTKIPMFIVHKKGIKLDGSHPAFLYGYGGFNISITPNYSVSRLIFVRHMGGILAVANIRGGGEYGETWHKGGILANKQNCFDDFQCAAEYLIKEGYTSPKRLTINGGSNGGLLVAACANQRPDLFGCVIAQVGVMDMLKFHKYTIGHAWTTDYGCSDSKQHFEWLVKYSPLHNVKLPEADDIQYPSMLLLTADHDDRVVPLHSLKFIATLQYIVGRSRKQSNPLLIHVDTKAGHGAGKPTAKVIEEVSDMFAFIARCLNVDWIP", "test": "Enzyme inhibition assay, binding specificity of VMT-FAP-2-59 (Example 3)", "conditions": "50 μM Z-GP-AMC", "protocol": "as §1"}, "[4]": {"biological_target": "T3, human FAP (Homo sapiens, UniProt Q12884)", "T3 sequence (Q12884 1-760)": "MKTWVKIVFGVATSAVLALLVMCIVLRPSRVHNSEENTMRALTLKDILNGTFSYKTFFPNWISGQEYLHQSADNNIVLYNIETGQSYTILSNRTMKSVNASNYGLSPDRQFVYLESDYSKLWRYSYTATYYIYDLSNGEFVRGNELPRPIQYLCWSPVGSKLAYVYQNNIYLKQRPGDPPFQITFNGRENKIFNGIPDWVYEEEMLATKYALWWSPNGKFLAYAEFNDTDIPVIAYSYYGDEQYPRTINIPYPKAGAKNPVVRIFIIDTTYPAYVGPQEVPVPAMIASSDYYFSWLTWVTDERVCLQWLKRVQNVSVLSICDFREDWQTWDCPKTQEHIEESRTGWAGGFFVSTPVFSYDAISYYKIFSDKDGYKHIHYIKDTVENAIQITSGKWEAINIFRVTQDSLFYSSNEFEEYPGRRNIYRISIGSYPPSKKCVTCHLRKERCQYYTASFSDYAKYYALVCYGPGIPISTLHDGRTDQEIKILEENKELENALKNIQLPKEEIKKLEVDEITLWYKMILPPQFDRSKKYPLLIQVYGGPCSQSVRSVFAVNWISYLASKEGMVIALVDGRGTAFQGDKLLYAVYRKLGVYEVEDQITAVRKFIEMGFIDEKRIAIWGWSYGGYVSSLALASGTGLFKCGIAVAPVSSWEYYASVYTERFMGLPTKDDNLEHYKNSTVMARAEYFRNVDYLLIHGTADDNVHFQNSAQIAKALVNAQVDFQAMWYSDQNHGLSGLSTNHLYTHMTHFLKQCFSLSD", "test": "Enzyme inhibition assay, binding specificity of VMT-FAP-2-59 (Example 3)", "conditions": "50 μM Z-GP-AMC", "protocol": "as §1"}},
  "note": "*1 amine or outer side, *2 acyl side, *3 side chain or, on linkers, in order; H or OH if unused. Where a SMILES comes first, the peptide text is derived from it. Bridges are numbered along the chain shown (N, C = ends). The star is where a group is joined. X1 = NC(=O)CN1CCN(CC(=O)O)CCN(CC(=O)*)CCN(CC(=O)O)CC1; oXylylene = c1ccc(C[*:2])c(C[*:1])c1; PEG2 = NCCOCCOCCC(=O)O",
  "data": [
    {"compound": "C[C@@H](O)[C@@H]1NC(=O)[C@@H](NC(=O)CCOCCOCCNC(=O)CN2CCN(CC(=O)O)CCN(CC(N)=O)CCN(CC(=O)O)CC2)CSCc2ccccc2CSC[C@@H](C(N)=O)NC(=O)[C@H](Cc2c[nH]c3ccccc23)NC(=O)[C@H](Cc2c[nH]c3ccccc23)NC(=O)[C@H](CCC(N)=O)NC(=O)[C@H](CCC(=O)O)NC(=O)[C@H](Cc2c[nH]c3ccccc23)NC(=O)[C@@H]2CCCN2C1=O", "note": "[VMT-FAP-2-59, PSC-PEG2-[C(oXdB)TPWEQWWC]-NH2] ({X1-PEG2}-CTPWEQWWC-NH2; linker 1-9 via oXylylene)", "values": [
      {"measurement": "Ki", "setting": "[1]", "result": "No binding"},
      {"measurement": "Ki", "setting": "[2]", "result": 4.2, "unit": "nM"},
      {"measurement": "Ki", "setting": "[3]", "result": 152, "unit": "nM"},
      {"measurement": "Ki", "setting": "[4]", "result": 0.4, "unit": "nM"}
    ]}
  ]
}
